{"source": "patent US5891909A", "about": "“Amidinohydrazones as protease inhibitors” (3-Dimensional Pharmaceuticals, Inc., priority 1997, dated 1999)", "assay_type_in_all_cases": "biochemical", "key": {"human α-thrombin": {"biological_target": "T1, human α-thrombin (Homo sapiens, UniProt P00734)", "T1 construct": "Human α-thrombin, human factor Xa and human plasmin were obtained from Enzyme Research Laboratories; purchased Enzyme Research Laboratories (South Bend, Ind.)", "test": "Thrombin inhibition, Ki determination (hydrolysis of N-succinyl-Ala-Ala-Pro-Arg-p-nitroanilide)", "settings": "pH 7.5, 37° C.", "from_the_text": "(§1) All buffer salts were obtained from Sigma Chemical Company (St. Louis, Mo.), and were of the highest purity available. The enzyme substrates, N-benzoyl-Phe-Val-Arg-p-nitroanilide (Sigma B7632), N-benzoyl-Ile-Glu-Gly-Arg-p-nitroanilide hydrochloride (Sigma B2291), N-p-Tosyl-Gly-Pro-Lys-p-nitroanilide (Sigma T6140), N-succinyl-Ala-Ala-Pro-Phe-p-nitroanilide (Sigma S7388) and N-CBZ-Val-Gly-Arg-p-nitroanilide (Sigma C7271) were obtained from Sigma.\nHuman α-thrombin, human factor Xa and human plasmin were obtained from Enzyme Research Laboratories (South Bend, Ind.). Bovine α-chymotrypsin (Sigma C4129), bovine trypsin (Sigma T8642) and human kidney cell urokinase (Sigma U5004) were obtained from Sigma. Human leukocyte elastase was obtained from Elastin Products (Pacific, Mo.).\nAll assays are based on the ability of the test compound to inhibit the enzyme catalyzed hydrolysis of a peptide p-nitroanilide substrate. […] The final concentrations for each of the substrates is listed below. In general, substrate concentrations are lower than the experimentally determined value for Km. Test compounds are prepared as a 1.0 mg/ml solution in DMSO. Dilutions are prepared in DMSO yielding 8 final concentrations encompassing a 200 fold concentration range. Enzyme solutions are prepared at the concentrations listed below in assay buffer.\nData corresponding to less than 10% of the total substrate hydrolysis were used in the calculations. The ratio of the velocity (rate of change in absorbance as a function of time) for a sample containing no test compound is divided by the velocity of a sample containing test compound, and is plotted as a function of test compound concentration. The data are fit to a linear regression, and the value of the slope of the line calculated. The inverse of the slope is the experimentally determined Ki value.\nThrombin activity was assessed as the ability to hydrolyze the substrate N-succinyl-Ala-Ala-Pro-Arg-p-nitroanilide."}, "bovine α-chymotrypsin": {"tested_on": "bovine α-chymotrypsin", "test": "Chymotrypsin inhibition (hydrolysis of N-succinyl-Ala-Ala-Pro-Phe-p-nitroanilide)", "settings": "at 1.6 μM", "from_the_text": "as §1, with “Sigma. N-succinyl-Ala-Ala-Pro-Arg-p-nitroanilide (BACHEM L-1720) and N-succinyl-Ala-Ala-Pro-Val-p-nitroanilide (BACHEM L-1770) were obtained from BACHEM (King of Prussia, Pa.). […]” for “Sigma.”\n(§2) All assays are based on the ability of the test compound to inhibit the enzyme catalyzed hydrolysis of a peptide p-nitroanilide substrate. […] In general, substrate concentrations are lower than the experimentally determined value for Km. […]\n(§3) In a typical Ki determination, into each well of a 96 well plate is pipetted 280 μL of substrate solution, 10 μL of test compound solution, and the plate allowed to thermally equilibrate at 37° C. in a Molecular Devices plate reader for >15 minutes. Reactions were initiated by the addition of a 10 μL aliquot of enzyme and the absorbance increase at 405 nm is recorded for 15 minutes. […] The data are fit to a linear regression, and the value of the slope of the line calculated. The inverse of the slope is the experimentally determined Ki value. […]"}, "bovine trypsin": {"tested_on": "bovine trypsin", "test": "Trypsin inhibition (hydrolysis of N-benzoyl-Phe-Val-Arg-p-nitroanilide)", "settings": "at 1.6 μM", "from_the_text": "as §1, with “Sigma. N-succinyl-Ala-Ala-Pro-Arg-p-nitroanilide (BACHEM L-1720) and N-succinyl-Ala-Ala-Pro-Val-p-nitroanilide (BACHEM L-1770) were obtained from BACHEM (King of Prussia, Pa.). […]” for “Sigma.”\nas §2, §3"}, "human leukocyte elastase": {"tested_on": "human leukocyte elastase", "test": "Elastase inhibition (hydrolysis of N-succinyl-Ala-Ala-Pro-Val-p-nitroanilide)", "settings": "at 1.6 μM", "from_the_text": "as §1, with “Sigma. N-succinyl-Ala-Ala-Pro-Arg-p-nitroanilide (BACHEM L-1720) and N-succinyl-Ala-Ala-Pro-Val-p-nitroanilide (BACHEM L-1770) were obtained from BACHEM (King of Prussia, Pa.). […]” for “Sigma.”\nas §2, §3"}, "human kidney urokinase": {"tested_on": "human kidney urokinase", "test": "Urokinase inhibition (hydrolysis of N-CBZ-Val-Gly-Arg-p-nitroanilide)", "settings": "at 1.6 μM", "from_the_text": "as §1, with “Sigma. N-succinyl-Ala-Ala-Pro-Arg-p-nitroanilide (BACHEM L-1720) and N-succinyl-Ala-Ala-Pro-Val-p-nitroanilide (BACHEM L-1770) were obtained from BACHEM (King of Prussia, Pa.). […]” for “Sigma.”\nas §2, §3"}, "human plasmin": {"tested_on": "human plasmin", "test": "Plasmin inhibition (hydrolysis of N-p-Tosyl-Gly-Pro-Lys-p-nitroanilide)", "settings": "at 1.6 μM", "from_the_text": "as §1, with “Sigma. N-succinyl-Ala-Ala-Pro-Arg-p-nitroanilide (BACHEM L-1720) and N-succinyl-Ala-Ala-Pro-Val-p-nitroanilide (BACHEM L-1770) were obtained from BACHEM (King of Prussia, Pa.). […]” for “Sigma.”\nas §2, §3"}, "human factor Xa": {"tested_on": "human factor Xa", "test": "Factor Xa inhibition (hydrolysis of N-benzoyl-Ile-Glu-Gly-Arg-p-nitroanilide)", "settings": "at 1.6 μM", "from_the_text": "as §1, with “Sigma. N-succinyl-Ala-Ala-Pro-Arg-p-nitroanilide (BACHEM L-1720) and N-succinyl-Ala-Ala-Pro-Val-p-nitroanilide (BACHEM L-1770) were obtained from BACHEM (King of Prussia, Pa.). […]” for “Sigma.”\nas §2, §3"}}, "note": "pKi: −log10 of the molar value. Structures can show the parent of a compound that is named as a salt. Where two headings read alike, the source gives them in different places.", "data": [{"smiles": "Cc1cc(OCCC=NNC(=N)N)cc(OS(=O)(=O)c2ccccc2Cl)c1", "note": "[Example 1, 2-[2-[3-(2-Chlorophenylsulfonyloxy)-5-methylphenoxy]ethyl-1-methylene]hydrazinecarboximidamide hydrochloride]", "values": [{"measurement": "pKi", "setting": "human α-thrombin; Table 2, read-out: Ki (thrombin)", "result": 7.89}, {"measurement": "% Inhibition (chymotrypsin)", "setting": "bovine α-chymotrypsin", "result": 0, "unit": "%"}, {"measurement": "% Inhibition (trypsin)", "setting": "bovine trypsin", "result": 0, "unit": "%"}, {"measurement": "% Inhibition (elastase)", "setting": "human leukocyte elastase", "result": 0, "unit": "%"}, {"measurement": "% Inhibition (urokinase)", "setting": "human kidney urokinase", "result": 0, "unit": "%"}, {"measurement": "% Inhibition (plasmin)", "setting": "human plasmin", "result": 0, "unit": "%"}, {"measurement": "% Inhibition (Factor Xa)", "setting": "human factor Xa", "result": 0, "unit": "%"}]}, {"smiles": "Cc1cc(OCCC=NNC(=N)N)cc(OS(=O)(=O)c2cccc(Cl)c2)c1", "note": "[Example 21, 2-[2-[3-(3-Chlorophenylsulfonyloxy)-5-methylphenoxy]ethyl-1-methylene]hydrazinecarboximidamide nitrate]", "values": [{"measurement": "pKi", "setting": "human α-thrombin; Table 1, read-out: Thrombin Ki", "result": 8.44}]}, {"smiles": "Cc1cc(OCCC=NNC(=N)N)cc(OS(=O)(=O)c2cccc3cnccc23)c1", "note": "[Example 32, 2-[2-[3-(5-Isoquinolinylsulfonyloxy)-5-methylphenoxy]ethyl-1-methylene]hydrazinecarboximidamide nitrate]", "values": [{"measurement": "pKi", "setting": "human α-thrombin; Table 1, read-out: Thrombin Ki", "result": 7.60}]}, {"smiles": "Cc1cc(OCCC=NNC(=N)N)cc(N(CCCCc2ccccc2)S(=O)(=O)c2ccccc2C(F)(F)F)c1", "note": "[Example 31, 2-[2-[(3-Methyl-5-(N-(4-phenylbutyl)-N-(2-trifluoromethylphenylsulfonyl))amino)phenoxy]ethyl-1-methylene]hydrazinecarboximidamide acetate]", "values": [{"measurement": "pKi", "setting": "human α-thrombin; Table 1, read-out: Thrombin Ki", "result": 7.16}]}]}
